Laboratory results reported in patent US4459302A, “Acyl-1H-1,2,4-triazole derivatives” (Gruppo Lepetit, S.p.A., priority 1978, dated 1984).

Tested on: female Syrian golden hamsters
Assay: antifertility (post-coital post-implantation) activity, subcutaneous, hamsters
Type: in vivo, Syrian golden hamster
Conditions: for ED50: Mesocricetus auratus, sc, 336 h, s.c. hamster, dosed days 4-8 of pregnancy, autopsy day 14, read-out: ED50 (100% activity, absence of live fetuses, in 50% of the animals)
From the text: Fertility regulation can usually be achieved in a number of ways through the administration of hormonal substances. These can involve ovulation inhibition, ova transport, fertilization, implantation of the zygote, resorption of the fetus or abortion. Only with ovulation inhibition has there developed a successful method that is clinically useful. The compounds of this invention allow an entirely new approach to this problem in which a non-hormonal compound can be administered parenterally, orally or by intravaginal route once or more times as needed after a "missed period" or to induce termination of a more advanced pregnancy. Representative experiments for assessing antifertility activity were carried out with female Syrian golden hamsters weighing 100 to 130 g. The animals were mated and the presence of sperm in the vagina was taken as evidence of mating. The day sperm was detected and considered day one of pregnancy, since in our laboratories and those of other investigators 90 to 100% of animals that mate as evidenced by vaginal sperm are pregnant.
Pregnancy was later confirmed at the time of autopsy by presence of fetuses or implantation sites in the uterus. Even if an animal aborts the fetus, implantation scars still remain as evidence that the animal has been pregnant. […] The animals were autopsied on day 14 of pregnancy and the uteri were examined for evidence of pregnancy (implantation sites, fetalresorption or live fetuses), hemorrhage, and evidence of abnormalities of the uterus, placenta or fetuses. A compound was considered to be active if there was a reduction of live fetuses in at least 60% of the treated animals and the presence of implantation sites proves the animal to have been pregnant.
The compounds were then studied for dose-activity relationship and the corresponding ED50 values, i.e. 100% activity (absence of live fetuses) in 50% of the animals, were also detrmined. The following Table reports the ED50 values of some representative compounds of the invention as well as that of the above mentioned known substance: […]

`COc1cccc(-c2nc(-c3ccccc3COC(C)=O)n(C(C)=O)n2)c1` [Example 7, 1-Acetyl-5-(2-acetoxymethylphenyl)-3-(3-methoxyphenyl)-1H-1,2,4-triazole] gave an ED50 of 0.04 mg/kg.

`CCNC(=O)n1nc(-c2cccc(OC)c2)nc1-c1ccccc1C` [Example 14] gave an ED50 of 0.15 mg/kg.

For `COc1cccc(-c2n[nH]c(-c3ccccc3COC(C)=O)n2)c1` [Example 24, 5-(2-Acetoxymethylphenyl)-3-(3-methoxyphenyl)-1H-1,2,4-triazole], the ED50 was 0.04 mg/kg.

`COc1cccc(-c2nc(-c3ccccc3C)n(C(=O)Nc3ccccc3)n2)c1` [Example 13, 3-(3-Methoxyphenyl)-5-(2-methylphenyl)-1-phenylcarbamoyl-1H-1,2,4-triazole] gave an ED50 of 0.05 mg/kg.

Work on `CCc1ccccc1-c1nc(-c2cccc(OC)c2)n(C(=O)Nc2ccc(C)cc2)n1` [Example 21b, 3-(2-ethylphenyl)-5-(3-methoxyphenyl)-1-(4-methylphenylcarbamoyl)-1H-1,2,4-triazole] yielded an ED50 of 0.04 mg/kg.

`COc1cccc(-c2nc(-c3ccccc3C)n(C(=O)Nc3ccc(C)cc3)n2)c1` [Example 22a, 3-(3-methoxyphenyl)-5-(2-methylphenyl)-1-(4-methylphenylcarbamoyl)-1H-1,2,4-triazole] was tested, and the ED50 was 0.08 mg/kg.

Work on `COc1cccc(-c2nc(-c3ccc(Cl)cc3C)n(C(C)=O)n2)c1` [Example 5, 1-Acetyl-5-(4-chloro-2-methylphenyl)-3-(3-methoxyphenyl)-1H-1,2,4-triazole] yielded an ED50 of 0.06 mg/kg.

In the case of `CCc1ccccc1-c1nc(-c2cccc(OC)c2)nn1C(=O)Nc1ccc([N+](=O)[O-])cc1` [Example 20, 5-(2-Ethylphenyl)-3-(3-methoxyphenyl)-1-(4-nitrophenyl)carbamoyl-1H-1,2,4-triazole], the ED50 is reported as 0.05 mg/kg.

`CCc1ccccc1-c1nc(-c2cccc(OC)c2)nn1C(=O)Nc1ccc(Cl)cc1` [Example 19, 1-(4-Chlorophenylcarbamoyl)-5-(2-ethylphenyl)-3-(3-methoxyphenyl)-1H-1,2,4-triazole] was tested, and the ED50 was 0.05 mg/kg.

`CCc1ccccc1-c1nc(-c2cccc(OC)c2)nn1C(=O)Nc1ccccc1Cl` [Example 18] was tested, and the ED50 was 0.05 mg/kg.

Work on `COc1cccc(-c2nc(-c3ccccc3C)n(C(C)=O)n2)c1` [Example 1, 1-Acetyl-3-(3-methoxyphenyl)-5-(2-methylphenyl)-1H-1,2,4-triazole] yielded an ED50 of 0.05 mg/kg.

`COc1cccc(-c2nc(-c3ccccc3C)n(C(=O)C(C)(C)C)n2)c1` [Example 3, 1-(2,2-Dimethylpropionyl)-3-(3-methoxyphenyl)-5-(2-methylphenyl)-1H-1,2,4-triazole] gave an ED50 of 0.15 mg/kg.

Work on `CCc1ccccc1-c1nc(-c2cccc(OC)c2)nn1C(=O)Nc1ccc(C)cc1` [Example 21a, 5-(2-Ethylphenyl)-3-(3-methoxyphenyl)-1-(4-methylphenylcarbamoyl)-1H-1,2,4-triazole] yielded an ED50 of 0.05 mg/kg.

Compound `COc1cccc(-c2nc(-c3ccccc3C)nn2C(=O)Nc2ccc(C)cc2)c1` [Example 22b, 5-(3-methoxyphenyl)-3-(2-methylphenyl)-1-(4-methylphenylcarbamoyl)-1H-1,2,4-triazole] has an ED50 of 0.08 mg/kg.

`CCc1ccccc1-c1nc(-c2cccc(OC)c2)nn1C(=O)Nc1ccccc1` [Example 16] was tested, and the ED50 was 0.05 mg/kg.

`CCc1ccccc1-c1nc(-c2cccc(OC)c2)nn1C(=O)NC` [Example 15, 5-(2-Ethylphenyl)-3-(3-methoxyphenyl)-1-methylcarbamoyl-1H-1,2,4-triazole] was tested, and the ED50 was 0.05 mg/kg.

Compound `CCC(=O)n1nc(-c2cccc(OC)c2)nc1-c1ccccc1C` [Example 2, 1-Propionyl-3-(3-methoxyphenyl)-5-(2-methylphenyl)-1H-1,2,4-triazole] has an ED50 of 0.07 mg/kg.

In the case of `CCc1ccccc1-c1nc(-c2cccc(OC)c2)nn1C(=O)OC` [Example 9, 1-Carbomethoxy-5-(2-ethylphenyl)-3-(3-methoxyphenyl)-1H-1,2,4-triazole], the ED50 is reported as 0.05 mg/kg.

`CCc1ccccc1-c1nc(-c2cccc(OC)c2)nn1C(=O)Nc1ccc(OC)cc1` [Example 17, 5-(2-Ethylphenyl)-3-(3-methoxyphenyl)-1-(4-methoxyphenylcarbamoyl)-1H-1,2,4-triazole] gave an ED50 of 0.07 mg/kg.

For `COc1cccc(-c2nc(-c3ccccc3C)n(C)n2)c1` [1-Methyl-3-(3-methoxyphenyl)-5-(2-methylphenyl)-1H-1,2,4,-triazole, reference compound], the ED50 was > 10 mg/kg and the “activity by the criterion: reduction of live fetuses in at least 60% of the treated animals” value (hamster, 10 mg/kg s.c. daily for 5 days, days 4-8 of pregnancy) was “much less active”.

`COc1cccc(-c2nc(-c3ccccc3C)n(C(=O)c3ccccc3)n2)c1` [Example 11, 1-Benzoyl-3-(3-methoxyphenyl)-5-(2-methylphenyl)-1H-1,2,4-triazole] showed an ED50 of 0.1 mg/kg.

With `CCc1ccccc1-c1nc(-c2cccc(OC)c2)nn1C(C)=O` [Example 6, 1-Acetyl-5-(2-ethylphenyl)-3-(3-methoxyphenyl)-1H-1,2,4-triazole] the ED50 was 0.04 mg/kg.

For `CCOC(=O)n1nc(-c2cccc(OC)c2)nc1-c1ccccc1C` [Example 10, 1-Carbethoxy-3-(3-methoxyphenyl)-5-(2-methylphenyl)-b 1H-1,2,4-triazole], the ED50 was 0.06 mg/kg.

With `CCOC(=O)n1nc(-c2cccc(OC)c2)nc1-c1ccccc1CC` [Example 8, 1-Carbethoxy-5-(2-ethylphenyl)-3-(3-methoxyphenyl)-1H-1,2,4-triazole] the ED50 was 0.05 mg/kg.
